Values quoted from earlier work, collected in patent publication US20200268735A1, “Combination Therapy of Lasmiditan and a CGRP Antagonist for Use in the Treatment of Migraine” (Eli Lilly and Company, priority 2017, published 2020).
Like-named read-outs stand apart in the source and are kept apart here.

Columns and labels:
[1] = SAMURAI, lasmiditan 200 mg, p<0.001
[2] = SPARTAN, lasmiditan 200 mg, p<0.001
[3] = for reduction in mean monthly migraine headache days: placebo 2.3 days

Q: For `CN1CCC(C(=O)c2cccc(NC(=O)c3c(F)cc(F)cc3F)n2)CC1` [lasmiditan, 2,4,6-trifluoro-N-[6-(1-methyl-piperidin-4-ylcarbonyl)-pyridin-2-yl]-benzamide], which “proportion of patients headache pain-free at 2 hours post-first dose” value ([1]; placebo 15.3%) is on record?
A: The value was 32.2%.

Q: And the “proportion of patients most bothersome symptom (MBS)-free at 2 hours post-first dose” value ([1]; placebo 29.5%)?
A: The value was 40.7%.

Q: What about the “severity of most treatment-emergent adverse events” value (after the first dose) of the same molecule?
A: The value was “mild-to-moderate”.

Q: And the “headache pain-free and MBS-free endpoints, other dose groups compared to placebo” value (lasmiditan 100 mg, 50 mg, both endpoints)?
A: The value was “significance was also noted”.

Q: And the “most frequently reported TEAEs after the first dose” value (≥2% and greater than placebo)?
A: Its value is “dizziness, paresthesia, somnolence, fatigue, nausea, and lethargy”.

Q: And the “proportion of patients headache pain-free at 2 hours post-first dose” value ([2]; placebo 21.3%)?
A: Its value is 38.8%.

Q: What about the “proportion of patients most bothersome symptom (MBS)-free at 2 hours post-first dose” value ([2]; placebo 33.5%) of the same molecule?
A: Its value is 48.7%.

B1: galcanezumab: monoclonal antibody targeting calcitonin gene-related peptide (CGRP) (antibody, chains of the INN, looked up, V domains shown)
VH: QVQLVQSGAEVKKPGSSVKVSCKASGYTFGNYWMQWVRQAPGQGLEWMGAIYEGTGKTVYIQKFADRVTITADKSTSTAYMELSSLRSEDTAVYYCARLSDYVSGFGYWGQGTTVTVSS
VL: DIQMTQSPSSLSASVGDRVTITCRASKDISKYLNWYQQKPGKAPKLLIYYTSGYHSGVPSRFSGSGSGTDFTLTISSLQPEDFATYYCQQGDALPPTFGGGTKVEIK
Q: Which “adverse events significantly more frequent versus placebo” value ([3]; 240 mg group) does the source give for B1 here?
A: The value was “significantly more injection site erythema”.

Q: What about the “all key secondary endpoints versus placebo” value ([3]; both doses (120 and 240 mg)) of the same molecule?
A: Its value is “superior to placebo”.

Q: What about the “adverse events significantly more frequent versus placebo” value ([3]; both galcanezumab doses) of the same molecule?
A: The value was “significantly more injection site reactions and injection site pruritus”.

Q: What about the “reduction in mean monthly migraine headache days” value ([3]; galcanezumab 120 mg once monthly) of the same molecule?
A: The value was 4.3 days.

Q: What about the “reduction in mean monthly migraine headache days” value ([3]; galcanezumab 240 mg once monthly) of the same molecule?
A: Its value is 4.2 days.

Q: And the “most common treatment-emergent adverse event” value ([3]; reported at similar rates in all treatment groups)?
A: Its value is “Injection site pain”.
